For data set [1], the target named is Human immunodeficiency virus type 1 integrase (Human immunodeficiency virus 1, UniProt Q7ZJM1). As to the kind of experiment: Inhibition of recombinant HIV-1 integrase by strand-transfer assay.
In data set [2] the test system is Human immunodeficiency virus. The data set is described as follows: Antiviral activity against pseudotyped HIV by luciferase reporter gene assay. Type of data set: functional, organism-based. The note with it: Human immunodeficiency virus 1.
Data set [3] deals with Human immunodeficiency virus. The data set is described as follows: Antiviral activity against pseudotyped HIV by luciferase reporter gene assay in presence of human serum albumin. Type of data set: functional, organism-based. The settings on record: Human immunodeficiency virus 1.
The test system of data set [4] is Human immunodeficiency virus. As to the kind of experiment: Antiviral activity against HIV infected in PBMC. The note with it: Human immunodeficiency virus 1. Type of data set: functional, organism-based.
Data set [5] concerns Human immunodeficiency virus. As to the kind of experiment: Ratio of IC50 for pseudotyped HIV by luciferase reporter gene assay in presence of human serum albumin to IC50 for pseudotyped HIV by luciferase reporter gene assay. Type of data set: functional. In general terms: Reporter assays use an easily measured gene product as a stand-in for the process of interest.
In data set [6] the test system is Human immunodeficiency virus. The data set is described as follows: Antiviral activity against HIV infected in PBMC assessed as protein-adjusted compound concentration. The settings on record: Human immunodeficiency virus 1. Type of data set: functional, organism-based.
Data set [7] addresses T1, Cytochrome P450 1A2 (Homo sapiens, UniProt P05177).
T1 sequence (P05177 whole entry): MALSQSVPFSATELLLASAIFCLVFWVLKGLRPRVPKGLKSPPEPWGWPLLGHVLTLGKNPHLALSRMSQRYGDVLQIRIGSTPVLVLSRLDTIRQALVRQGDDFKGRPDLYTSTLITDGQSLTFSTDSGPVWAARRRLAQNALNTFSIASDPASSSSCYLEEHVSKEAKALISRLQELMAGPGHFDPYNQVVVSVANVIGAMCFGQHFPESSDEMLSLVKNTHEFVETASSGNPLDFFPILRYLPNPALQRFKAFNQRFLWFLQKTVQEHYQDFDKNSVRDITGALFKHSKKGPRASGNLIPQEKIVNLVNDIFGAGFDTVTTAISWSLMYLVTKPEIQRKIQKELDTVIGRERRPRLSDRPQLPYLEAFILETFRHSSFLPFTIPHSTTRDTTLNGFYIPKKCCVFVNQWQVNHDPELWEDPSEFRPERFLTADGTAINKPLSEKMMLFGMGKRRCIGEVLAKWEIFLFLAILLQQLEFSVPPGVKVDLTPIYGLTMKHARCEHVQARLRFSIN
The data set is described as follows: Inhibition of CYP1A2 (unknown origin) at 4.7 uM. Type of data set: ADME.

A short description of data set [8]: Half life in rat at 1 mg/kg, iv as bolus dose. Type of data set: ADME, organism-based. The arrangement: dose 1 mg/kg, route intravenous. The note with it: in vivo.
Data set [9] is described as follows: Half life in dog at 1 mg/kg, iv as bolus dose. Format: ADME, organism-based, Canis lupus familiaris. Set-up: dose 1 mg/kg, route intravenous. The settings on record: in vivo.
The nature of data set [10]: Half life in cynomolgus monkey at 1 mg/kg, iv as bolus dose. The settings on record: in vivo. Format: ADME, organism-based, Macaca fascicularis. The arrangement: dose 1 mg/kg, route intravenous.
Data set [11] can be described thus: Oral bioavailability in rat at 5 mg/kg. Type of data set: ADME, organism-based. The settings on record: in vivo.
Data set [12] is described as follows: Oral bioavailability in dog at 5 mg/kg. Type of data set: ADME, organism-based, Canis lupus familiaris. The note with it: in vivo.
The nature of data set [13]: Oral bioavailability in cynomolgus monkey at 5 mg/kg. The settings on record: in vivo. Type of data set: ADME, organism-based, Macaca fascicularis.
Data set [14] in a line: Ratio of plasma concentration in rat at 5 mg/kg, po to IC90 for HIV infected in PBMC assessed as protein-adjusted compound concentration. Type of data set: ADME, organism-based. Set-up: dose 5 mg/kg, route oral. The settings on record: in vivo.
Data set [15] in a line: Ratio of plasma concentration in dog at 5 mg/kg, po to IC90 for HIV infected in PBMC assessed as protein-adjusted compound concentration. Format: ADME, organism-based. The arrangement: dose 5 mg/kg, route oral. The settings on record: in vivo.
Data set [16] is described as follows: Ratio of plasma concentration in cynomolgus monkey at 5 mg/kg, po to IC90 for HIV infected in PBMC assessed as protein-adjusted compound concentration. Type of data set: ADME, organism-based. Set-up: dose 5 mg/kg, route oral. The note with it: in vivo.
Data set [17] in a line: Plasma clearance in rat at 1 mg/kg, iv.
Data set [18] can be described thus: Plasma clearance in dog at 1 mg/kg, iv.
Data set [19] in a line: Plasma clearance in cynomolgus monkey at 1 mg/kg, iv.

Sequence of Human immunodeficiency virus type 1 integrase (Q7ZJM1 whole entry): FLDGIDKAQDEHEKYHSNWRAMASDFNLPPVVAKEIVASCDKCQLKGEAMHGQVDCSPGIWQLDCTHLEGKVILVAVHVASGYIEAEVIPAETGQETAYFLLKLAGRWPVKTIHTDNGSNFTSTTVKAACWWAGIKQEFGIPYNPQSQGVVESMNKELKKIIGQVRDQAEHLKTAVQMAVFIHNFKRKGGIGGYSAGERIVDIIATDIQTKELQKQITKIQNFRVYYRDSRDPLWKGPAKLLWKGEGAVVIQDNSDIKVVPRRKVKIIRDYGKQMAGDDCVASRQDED

The term IC50 denotes the concentration that gives 50% inhibition. What is called IC90 is the point of the concentration-response curve where the effect stands at 90%. A word on the half-life: it is the time in which the quantity being followed falls by half. One may read the clearance as the volume of plasma or blood freed of the substance per unit of time. For the compound `CNC(=O)Cn1c(=O)c(C(=O)NCCOC)c(O)c2ncc(Cc3ccc(F)cc3)cc21`, the IC50 in [1] came to 9 nM; in data set [2], 3 nM; in data set [3], 14 nM; in [4], 2.3 nM; in data set [6], 10 nM. Also, in [5], the “Ratio IC50” value was determined as 4.5. Further, the concentration for an effect of 90% (IC90) in [6] came out at 41 nM. Also, the “inhibition (INH)” value in [7] is “Active”. The results for the half-life in data set [8], in [9] and in data set [10] were 3.7 h, 1.2 h and 2.3 h, respectively. In addition, the bioavailability was determined as 51% in data set [11], 111% in [12] and 19% in data set [13]. In addition, the Ratio stood at 56 in data set [14], 0.1 in data set [15] and 0.8 in [16]. In addition, the clearance in data set [17] worked out at 0.5 mL/min/kg; in [18], 13.8 mL/min/kg; in [19], 2 mL/min/kg.

These data come from ChEMBL document CHEMBL3352021, “Naphthyridinone (NTD) integrase inhibitors 4. Investigating N1 acetamide substituent effects with C3 amide groups” (Bioorg Med Chem Lett, 2014).
